According to PubChem BioAssay AID330 (DTP/NCI, 2004):
Values joined by “and” are separate entries in the source; they are usually repeats but may differ in a detail not shown here. Equal entries are not always repeated. Inconclusive results and toxic doses are left out.

System: P388 leukemia ip, CD2F1 mice, survival T/C
Assay: NCI In Vivo Anticancer Drug Screen. Data for tumor model P388 Leukemia (intraperitoneal) in CD2F1 (CDF1) mice
Conditions: endpoint: median survival time, higher = longer survival
Procedure, shortened: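 Mice carrying the transplanted tumor received test compound or vehicle. Survival was recorded in each group, and the value is the treated-group measurement divided by that of the vehicle-treated control group.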

[1] = dose: 50.0 mg/kg/injection, schedule: Q01DX005 (ip), vehicle: Klucel (hydroxypropylcellulose) (HPC)
[2] = dose: 100.0 mg/kg/injection, schedule: Q01DX005 (ip), vehicle: Klucel (hydroxypropylcellulose) (HPC)
[3] = dose: 200.0 mg/kg/injection, schedule: Q01DX005 (ip), vehicle: Klucel (hydroxypropylcellulose) (HPC)
[4] = dose: 120.0 mg/kg/injection, schedule: Q01DX005 (ip), vehicle: saline with Tween-80
[5] = dose: 240.0 mg/kg/injection, schedule: Q01DX005 (ip), vehicle: saline with Tween-80

CCNC(=O)/N=c1/sc([N+](=O)[O-])cn1CC(=O)N(C)C(=O)OCC
T/C (dose: 25.0 mg/kg/injection, schedule: Q01DX001 (ip), vehicle: saline): 100 % of control | T/C (dose: 50.0 mg/kg/injection, schedule: Q01DX001 (ip), vehicle: saline): 98 % of control | T/C (dose: 100.0 mg/kg/injection, schedule: Q01DX001 (ip), vehicle: saline): 100 % of control

Cc1cc2c(=O)cc(-c3ccc([N+](=O)[O-])cc3)oc2c(C#N)c1C
T/C (dose: 60.0 mg/kg/injection, schedule: Q01DX005 (ip), vehicle: Klucel (hydroxypropylcellulose) (HPC)): 92 % of control | T/C (dose: 120.0 mg/kg/injection, schedule: Q01DX005 (ip), vehicle: Klucel (hydroxypropylcellulose) (HPC)): 94 % of control | T/C (dose: 240.0 mg/kg/injection, schedule: Q01DX005 (ip), vehicle: Klucel (hydroxypropylcellulose) (HPC)): 87 % of control

COc1cc(C(=O)NCC(=O)NN=C(C)C)cc(OC)c1OC
T/C [1]: 104 % of control | T/C [2]: 95 % of control | T/C [3]: 107 % of control

COC(=O)/C1=C\CC/C(C(=O)OC)=C\C(=O)CCC1
T/C (dose: 25.0 mg/kg/injection, schedule: Q01DX005 (ip), vehicle: Klucel (hydroxypropylcellulose) (HPC)): 101 % of control | T/C [1]: 101 % of control | T/C [2]: 103 % of control

CC(=O)NC1C(OC(C)=O)C(OC(C)=O)C(COC(C)=O)OC1[N+](=O)[O-] (stereo unspecified)
T/C (dose: 60.0 mg/kg/injection, schedule: Q01DX005 (ip), vehicle: saline with Tween-80): 101 % of control | T/C [4]: 94 % of control | T/C [5]: 99 % of control

CC1=NN=C(C)C1=Cc1ccccc1[N+](=O)[O-]
T/C (dose: 50.0 mg/kg/injection, schedule: Q01DX009 (ip), vehicle: Klucel (hydroxypropylcellulose) (HPC)): 99 % of control | T/C (dose: 100.0 mg/kg/injection, schedule: Q01DX009 (ip), vehicle: Klucel (hydroxypropylcellulose) (HPC)): 95 % of control | T/C (dose: 200.0 mg/kg/injection, schedule: Q01DX009 (ip), vehicle: Klucel (hydroxypropylcellulose) (HPC)): 101 % of control

CC(Nc1nncs1)Nc1nncs1
T/C (dose: 30.0 mg/kg/injection, schedule: Q01DX005 (ip), vehicle: saline with Tween-80): 105 % of control | T/C [4]: 159 % of control and 162 % of control | T/C [5]: 160 % of control and 170 % of control

Cc1ccc(S(=O)(=O)C2CC(=O)N(c3ccc(F)c(Cl)c3)C2=O)cc1 (stereo unspecified)
T/C (dose: 100.0 mg/kg/injection, schedule: Q04DX002 (ip), vehicle: saline with Tween-80): 94 % of control | T/C (dose: 200.0 mg/kg/injection, schedule: Q04DX002 (ip), vehicle: saline with Tween-80): 94 % of control | T/C (dose: 400.0 mg/kg/injection, schedule: Q04DX002 (ip), vehicle: saline with Tween-80): 96 % of control

CCN(C)c1cc2c3c(c1)CCCN3CCC2
T/C (dose: 1.25 mg/kg/injection, schedule: Q01DX009 (ip), vehicle: saline): 113 % of control | T/C (dose: 1.25 mg/kg/injection, schedule: Q04DX003 (ip), vehicle: saline): 100 % of control | T/C (dose: 2.5 mg/kg/injection, schedule: Q01DX009 (ip), vehicle: saline): 109 % of control | T/C (dose: 2.5 mg/kg/injection, schedule: Q04DX003 (ip), vehicle: saline): 95 % of control | T/C (dose: 5.0 mg/kg/injection, schedule: Q01DX009 (ip), vehicle: saline): 104 % of control | T/C (dose: 5.0 mg/kg/injection, schedule: Q04DX003 (ip), vehicle: saline): 109 % of control

O=C(NNc1ccccc1)c1ccccc1Cl
T/C (dose: 25.0 mg/kg/injection, schedule: Q01DX009 (ip), vehicle: saline): 101 % of control | T/C (dose: 50.0 mg/kg/injection, schedule: Q01DX009 (ip), vehicle: saline): 105 % of control | T/C (dose: 100.0 mg/kg/injection, schedule: Q01DX009 (ip), vehicle: saline): 97 % of control | T/C (dose: 200.0 mg/kg/injection, schedule: Q01DX009 (ip), vehicle: saline): 98 % of control

c1cc[c]([Ge]([O][Ge]([c]2ccccc2)[c]2ccccc2)[c]2ccccc2)cc1.c1cc[c]([Ge]([O][Ge]([c]2ccccc2)[c]2ccccc2)[c]2ccccc2)cc1
T/C [1]: 89 % of control | T/C [2]: 91 % of control | T/C [3]: 89 % of control

CC1CCC2(NC1)OC1CC3C4CCC5CC(OC6OC(CO)C(OC7OC(CO)C(O)C(OC8OCC(O)C(O)C8O)C7OC7OC(CO)C(O)C(O)C7O)C(O)C6O)CCC5(C)C4CCC3(C)C1C2C (stereo unspecified)
T/C (dose: 3.12 mg/kg/injection, schedule: Q04DX003 (ip), vehicle: Klucel (hydroxypropylcellulose) (HPC)): 102 % of control | T/C (dose: 6.25 mg/kg/injection, schedule: Q04DX003 (ip), vehicle: Klucel (hydroxypropylcellulose) (HPC)): 100 % of control | T/C (dose: 12.5 mg/kg/injection, schedule: Q04DX003 (ip), vehicle: Klucel (hydroxypropylcellulose) (HPC)): 100 % of control and 91 % of control | T/C (dose: 50.0 mg/kg/injection, schedule: Q04DX003 (ip), vehicle: Klucel (hydroxypropylcellulose) (HPC)): 89 % of control and 93 % of control
